Where two headings read alike, the source gives them in different places.
Tested on: H460 cells
Assay: Alamar Blue antiproliferation assay, H460 cell line
Assay type: cell-based, human
Protocol: To determine the effect of the compounds of the present invention on cell proliferation, the antiproliferative activity of these compounds was tested in a multi-well Alamar Blue based assay (at 2 h and 3 days). Cell growth in the presence and absence of the test compound as tabulated in Table 1 was compared, as measured by a fluorescence plate reader at excitation 550 nm and emission 590 nm (see Biosource International Inc., Tech Application Notes, Use of Alamar Blue in the measurement of Cell Viability and Toxicity, Determining IC50). H460 cells (ATCC HTB-177 ([…]), 4,000 cells/well/200 μl) and LNCap cells (ATCC CRL-1740, 6,000 cells/well/200 μl) were seeded in a 96 well plate in RPMI medium (Invitrogen Corporation, Carlsbad, Calif.). After 24 hours, these plates were divided into 3 groups—Control group, 2 h treatment group and 3 day treatment group.
In the 2 h treatment group, after 2 h the cells were rinsed to remove the test compound and incubated for 3 days, followed by staining with AlamarBlue. The cells in the 3-day treatment group were incubated for 3 days, followed by staining with AlamarBlue. In the Control group, AlamarBlue was added to the plate at (i) day 0 and (ii) day 3 and measured to establish the control reading. In all the groups, the capacity of the cells to proliferate was measured 6 hours after addition of AlamarBlue by a fluorescence plate reader at excitation 550 nm and emission 590 nm.

[1] = Homo sapiens, NCI-H460, 2 h treatment, then 3 days incubation, read-out: GI50 (nM) 2 Hour
[2] = Homo sapiens, NCI-H460, 2 h treatment, then 3 days incubation, read-out: GI90 (nM) 2 Hour
[3] = Homo sapiens, NCI-H460, 72 h, 3 day treatment, read-out: GI50 (nM) 3 Days
[4] = Homo sapiens, NCI-H460, 72 h, 3 day treatment, read-out: GI90 (nM) 3 Day

COc1cc(C(=O)c2n[nH]c3ccc(F)cc23)cc(OC)c1OC [Compound 43]
GI50 [1]: > 10000 nM
IC90 [2]: > 1000 nM
GI50 [3]: > 10000 nM
IC90 [4]: > 1000 nM

COc1ccc2c(/C(=N/NC(C)=O)c3cc(OC)c(OC)c(OC)c3)n[nH]c2c1 [Compound 44]
GI50 [1]: > 5000 nM
IC90 [2]: > 5000 nM
GI50 [3]: 1580 nM
IC90 [4]: > 5000 nM

COc1ccc2c(C(=O)c3cc(OC)c(OC)c(OC)c3N)n[nH]c2c1 [Compound 45]
GI50 [3]: 158 nM

COc1ccc2c(C(=O)c3cc(OC)c(OC)c(OC)c3)nn(S(=O)(=O)c3ccc(C)cc3)c2c1 [Compound 47]
GI50 [3]: 25 nM

COc1ccc2c(C(=O)c3cc(OC)c(OC)c(OC)c3Br)nn(S(=O)(=O)c3ccc(C)cc3)c2c1 [Compound 48]
GI50 [3]: 630 nM

COc1ccc2c(C(=O)c3cc(OC)c(OC)c(OC)c3)nn(P(=O)(OC)OC)c2c1 [Compound 49]
GI50 [3]: 15.8 nM

CCC(=O)n1nc(C(=O)c2cc(OC)c(OC)c(OC)c2)c2ccc(OC)cc21 [Compound 50]
GI50 [1]: > 10000 nM
GI50 [3]: 20 nM

COc1cc(C(=O)c2n[nH]c3c(C#CCNC(=O)C(F)(F)F)c(OC)ccc23)cc(OC)c1OC [Compound 52]
GI50 [1]: > 1000 nM
GI50 [3]: 100 nM

COc1cc(C(=O)c2n[nH]c3c(C#CCN)c(OC)ccc23)cc(OC)c1OC [Compound 53]
GI50 [1]: 630 nM
GI50 [3]: 158 nM

COc1ccc2c(C(=O)c3cc(OC)c(OC)c(OC)c3)nn(CO)c2c1 [Compound 56]
GI50 [1]: > 10000 nM
GI50 [3]: 50.1 nM

COc1cc(C(=O)c2n[nH]c3c(C(=O)O)c(OC)ccc23)cc(OC)c1OC [Compound 59]
GI50 [1]: > 1000 nM
GI50 [3]: 794 nM

COc1cc(C(=O)c2n[nH]c3c(CCCCO)c(OC)ccc23)cc(OC)c1OC [Compound 61]
GI50 [1]: > 1000 nM
GI50 [3]: > 1000 nM

COc1ccc2c(C(=O)c3cc(OC)c(OC)c(OC)c3)nn(CC(=O)O)c2c1 [Compound 62]
GI50 [1]: > 1000 nM
GI50 [3]: 630 nM

COc1ccc2c(C(=O)c3cc(OC)c(OC)c(OC)c3)nn(CC(N)=O)c2c1 [Compound 63]
GI50 [1]: > 1000 nM
GI50 [3]: 630 nM

COc1ccc2c(C(=O)c3cc(OC)c(OC)c(OC)c3)nn(CCO)c2c1 [Compound 64]
GI50 [1]: > 1000 nM
GI50 [3]: 630 nM

COc1cc(C(=O)c2n[nH]c3c(CCC(C)(C)O)c(OC)ccc23)cc(OC)c1OC [Compound 65]
GI50 [1]: > 1000 nM
GI50 [3]: > 1000 nM

COc1cc(C(=O)c2n[nH]c3c(C#Cc4cccc(O)c4)c(OC)ccc23)cc(OC)c1OC [Compound 69]
GI50 [3]: 1000 nM

COc1cc(C(=O)c2n[nH]c3c(C#C[C@@H](C)O)c(OC)ccc23)cc(OC)c1OC [Compound 71]
GI50 (3 day treatment, read-out: GI50 (nM) 3 Days): 12.5 nM

C#Cc1c(OC)ccc2c(C(=O)c3cc(OC)c(OC)c(OC)c3)nn(CC(N)=O)c12 [Compound 73]
GI50 [3]: 630 nM

C#Cc1c(OC)ccc2c(C(=O)c3cc(OC)c(OC)c(OC)c3)nn(CC(=O)O)c12 [Compound 74]
GI50 [3]: > 1000 nM

C#Cc1c(OC)ccc2c(C(=O)c3cc(OC)c(OC)c(OC)c3)nn(C(=O)OCc3ccc([N+](=O)[O-])o3)c12 [Compound 75]
GI50 [3]: > 1000 nM

COc1cc(C(=O)c2n[nH]c3c(C#CC=O)c(OC)ccc23)cc(OC)c1OC [Compound 76]
GI50 [3]: 79.4 nM

COc1cc2[nH]nc(C(=O)c3cc(OC)c(OC)c(OC)c3)c2cc1OC [Compound 77]
GI50 [3]: > 1000 nM

C#Cc1c(OC)ccc2c(C(=O)c3cc(OC)c(OC)c(OC)c3)nn([C@@H]3OC(CO)[C@@H](O)[C@H](O)C3O)c12 (some centres unmarked) [Compound 80]
GI50 [3]: > 1000 nM

COc1ccc2c(C(=O)c3cc(OC)c(OC)c(OC)c3)n(CO)nc2c1 [Compound 81]
GI50 [3]: > 1000 nM

From US20090042820A1, “Tubulin Binding Anti Cancer Agents And Prodrugs Thereof” (Threshold Pharmaceuticals, Inc., priority 2004, published 2009)
